Experimental data taken from patent US5416070A, “Composition for macrophage activation” (ImmunoTherapeutics, Inc., priority 1990, dated 1995).

Columns and labels:
[1] = test system: human peripheral blood monocytes; assay: Activation of monocytes in vitro measured by production of Interleukin-1-beta (ELISA); assay type: cell-based; conditions: 24 Hours
Protocol: (§1) Human peripheral blood monocytes were isolated by density gradient centrifugation as noted in Example 13. The cell number was adjusted to 5×10^5 cells per ml in RPM 1640 media containing 5% human AB negative serum. One ml containing 5×10^5 cells were placed in individual wells of 24-well Plastek tissue culture plate. Various drugs in a volume of 0.5 ml were added at time zero. The compounds were also formulated in liposomes as described in Example 10, and added in a volume of 0.5 ml to individual wells of a 24-well Plastek tissue culture plate. The cells were incubated at 37° C. in a 5% CO2 atmosphere. Aliquots (0.1 ml) of the supernatant were removed at 24 hours and frozen at -20° C. These samples were subsequently assayed for TNF as described in Example 33 and Interleukin-1-beta (IL-1β) using a commercially available ELISA kit from Cistron (Pine Brook, N.J.).

[2] = test system: human peripheral blood monocytes; assay: Activation of monocytes in vitro measured by production of tumor necrosis factor (ELISA); assay type: cell-based; conditions: 24 Hours
Protocol: Human peripheral blood monocytes were isolated by density gradient centrifugation as noted in Example 13. The cell number was adjusted to 5×10^5 cells per ml in RPM 1640 media containing 5% human AB negative serum. One ml containing 5×10^5 cells were placed in individual wells of a 24-well Plastek tissue culture plate. Various drugs in a volume of 0.5 ml were added at time zero. The cells were incubated at 37° C. in a 5% CO2 atmosphere. Aliquots (0.1 ml) of the supernatant were removed at 24 hours and frozen at -80° C. These samples were subsequently assayed for tumor necrosis factor (TNF) activity using a commercially available ELISA Assay from T-Cell Sciences (Cambridge, Mass.).
Human peripheral blood monocytes were isolated by density gradient centrifugation as described in Example 13. The cells were plated in 24-well microliter plates as described in Example 33. The compounds Were prepared in liposomes as described in Example 10, and assayed for TNF production, as described in Example 33. The results are set forth in Table 5, and show significant levels of TNF compared to controls.
as §1

## CC(=O)NC1C(OC2C(CO)OC(O)C(NC(C)=O)C2OC(C)C(=O)NC(C(=O)NC(CCC(=O)O)C(N)=O)C(C)O)OC(CO)C(O)C1O [GlcNAcMurNAc-L-Thr-D-isoGln]
[1]; Table 8, Experiment 1, 0.01 μg/ml
  IL-1-beta (pg/ml) at given Concentration of Compound: 50 pg/mL
[1]; Table 8, Experiment 1, 0.1 μg/ml
  IL-1-beta (pg/ml) at given Concentration of Compound: 70 pg/mL
[1]; Table 8, Experiment 1, 1.0 μg/ml
  IL-1-beta (pg/ml) at given Concentration of Compound: 230 pg/mL
[1]; Table 8, Experiment 1, 10.0 μg/ml
  IL-1-beta (pg/ml) at given Concentration of Compound: 630 pg/mL
[2]; Table 7, Experiment 1, 0.01 μg/ml
  TNF (pg/ml) at given Concentration of Compound: 200 pg/mL
[2]; Table 7, Experiment 1, 0.1 μg/ml
  TNF (pg/ml) at given Concentration of Compound: 440 pg/mL
[2]; Table 7, Experiment 1, 1.0 μg/ml
  TNF (pg/ml) at given Concentration of Compound: 1050 pg/mL
[2]; Table 7, Experiment 1, 10.0 μg/ml
  TNF (pg/ml) at given Concentration of Compound: 1050 pg/mL
